Here are results for 29 compounds from patent publication US8846698B2, “Pyrrolo[2,3-d]pyrimidine tropomysin-related kinase inhibitors” (Pfizer Limited, priority 2011, dated 2014).

pIC50: −log10 of the molar value.

The target of the assay is TRKA (Homo sapiens (Human), UniProt P04629). In words: Isolated TRK enzyme assay (HTRF KinEASE-TK), TRKA. Type of assay: biochemical. The note with it: read-out: Trka enzyme (IC50). For orientation: Time-resolved FRET reads energy transfer from a long-lived donor to a nearby acceptor.
Sequence of TRKA (P04629 441-796): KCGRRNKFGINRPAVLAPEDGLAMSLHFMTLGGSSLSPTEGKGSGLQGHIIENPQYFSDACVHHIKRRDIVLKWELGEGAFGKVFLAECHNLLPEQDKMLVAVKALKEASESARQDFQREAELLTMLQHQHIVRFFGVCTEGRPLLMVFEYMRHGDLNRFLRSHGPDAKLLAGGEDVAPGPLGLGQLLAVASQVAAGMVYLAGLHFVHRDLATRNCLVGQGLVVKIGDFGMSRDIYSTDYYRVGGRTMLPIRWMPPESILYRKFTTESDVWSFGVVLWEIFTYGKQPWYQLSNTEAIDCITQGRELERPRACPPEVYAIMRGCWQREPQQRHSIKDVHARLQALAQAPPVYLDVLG
For `CC(C)(C)n1cc(C(=O)c2cncc(NC(=O)Cc3ccc(Br)cn3)c2)c2cnc(N)nc21` [Example 529, N-[5-(2-Amino-7-tert-butyl-7H-pyrrolo[2,3-d]pyrimidine-5-carbonyl)-pyridin-3-yl]-2-(5-bromo-pyridin-2-yl)-acetamide], the pIC50 – broadly, the negative decadic logarithm of the IC50, by convention in mol/L – is 8.41. With `CC(C)(C)n1cc(C(=O)c2cncc(NC(=O)Cc3ccc(C#N)cn3)c2)c2cnc(N)nc21` [Example 530, N-[5-(2-Amino-7-tert-butyl-7H-pyrrolo[2,3-d]pyrimidine-5-carbonyl)-pyridin-3-yl]-2-(5-cyano-pyridin-2-yl)-acetamide], the negative logarithm of the IC50 (pIC50) is 8.23. On to `C[C@@H](CO)n1cc(C(=O)c2cncc(NC(=O)Cc3ccc(OC(F)F)cc3)c2)c2cncnc21` [Example 531, 2-(4-Difluoromethoxy-phenyl)-N-{5-[7-((S)-2-hydroxy-1-methyl-ethyl)-7H-pyrrolo[2,3-d]pyrimidine-5-carbonyl]-pyridin-3-yl}-acetamide], for which the negative logarithm of the IC50 (pIC50) is 7.28. As for `C[C@@H](CO)n1cc(C(=O)c2cncc(NC(=O)Cn3cc4ccccc4n3)c2)c2cncnc21` [Example 532, N-{5-[7-((S)-2-Hydroxy-1-methyl-ethyl)-7H-pyrrolo[2,3-d]pyrimidine-5-carbonyl]-pyridin-3-yl}-2-indazol-2-yl-acetamide], the figure is 7.95. As for `C[C@@H](CO)n1cc(C(=O)c2cncc(NC(=O)Cc3nc4ccccc4[nH]3)c2)c2cncnc21` [Example 533, 2-(1H-Benzoimidazol-2-yl)-N-{5-[7-((S)-2-hydroxy-1-methyl-ethyl)-7H-pyrrolo[2,3-d]pyrimidine-5-carbonyl]-pyridin-3-yl}-acetamide], the figure is 7.50. As for `C[C@@H](CO)n1cc(C(=O)c2cncc(NC(=O)Cc3ccc(OC(F)(F)F)cc3)c2)c2cncnc21` [Example 534, N-{5-[7-((S)-2-Hydroxy-1-methyl-ethyl)-7H-pyrrolo[2,3-d]pyrimidine-5-carbonyl]-pyridin-3-yl}-2-(4-trifluoromethoxy-phenyl)-acetamide], the figure is 7.69; as for `C[C@@H](CO)n1cc(C(=O)c2cncc(NC(=O)Cc3ccc(F)c(F)c3)c2)c2cncnc21` [Example 535, 2-(3,4-Difluoro-phenyl)-N-{5-[7-((S)-2-hydroxy-1-methyl-ethyl)-7H-pyrrolo[2,3-d]pyrimidine-5-carbonyl]-pyridin-3-yl}-acetamide], 7.29. On to `COCC(C)(C)n1cc(C(=O)c2cncc(NC(=O)Cc3ccc(Cl)cn3)c2)c2cncnc21` [Example 536, 2-(5-Chloro-pyridin-2-yl)-N-{5-[7-(2-methoxy-1,1-dimethyl-ethyl)-7H-pyrrolo[2,3-d]pyrimidine-5-carbonyl]-pyridin-3-yl}-acetamide], for which the pIC50 was 8.80. `COCC(C)(C)n1cc(C(=O)c2cncc(NC(=O)Cc3ccc(F)cn3)c2)c2cncnc21` [Example 537, 2-(5-Fluoro-pyridin-2-yl)-N-{5-[7-(2-methoxy-1,1-dimethyl-ethyl)-7H-pyrrolo[2,3-d]pyrimidine-5-carbonyl]-pyridin-3-yl}-acetamide]: the pIC50 is 7.97. As for `COCC(C)(C)n1cc(C(=O)c2cncc(NC(=O)Cn3ccc(C4CC4)n3)c2)c2cncnc21` [Example 538, 2-(3-Cyclopropyl-pyrazol-1-yl)-N-{5-[7-(2-methoxy-1,1-dimethyl-ethyl)-7H-pyrrolo[2,3-d]pyrimidine-5-carbonyl]-pyridin-3-yl}-acetamide], the figure is 8.82; as for `COCC(C)(C)n1cc(C(=O)c2cncc(NC(=O)Cc3ccc(F)cc3)c2)c2cncnc21` [Example 539, 2-(4-Fluoro-phenyl)-N-{5-[7-(2-methoxy-1,1-dimethyl-ethyl)-7H-pyrrolo[2,3-d]pyrimidine-5-carbonyl]-pyridin-3-yl}-acetamide], 8.39. As to `CN(C(=O)Cc1ccc(F)cc1)c1cncc(C(=O)c2cn(C(C)(C)C)c3ncncc23)c1` [Example 540, N-[5-(7-tert-Butyl-7H-pyrrolo[2,3-d]pyrimidine-5-carbonyl)-pyridin-3-yl]-2-(4-fluoro-phenyl)-N-methyl-acetamide], the negative-log IC50 (pIC50) was 6.82.

With `CN(C(=O)Cc1ccc(Cl)cn1)c1cncc(C(=O)c2cn(C(C)(C)C)c3ncncc23)c1` [Example 543, N-[5-(7-tert-Butyl-7H-pyrrolo[2,3-d]pyrimidine-5-carbonyl)-pyridin-3-yl]-2-(5-chloro-pyridin-2-yl)-N-methyl-acetamide], the pIC50 is 7.30. As for `CN(C(=O)Cc1ccc(Cl)cc1)c1cncc(C(=O)c2cn(C(C)(C)C)c3ncncc23)c1` [Example 544, N-[5-(7-tert-Butyl-7H-pyrrolo[2,3-d]pyrimidine-5-carbonyl)-pyridin-3-yl]-2-(4-chloro-phenyl)-N-methyl-acetamide], the figure is 7.50; as for `CC(C)(C)n1cc(C(=O)c2cncc(NC(=O)Cc3ccc(Cl)cc3)c2)c2cncnc21` [Example 545, N-[5-(7-tert-Butyl-7H-pyrrolo[2,3-d]pyrimidine-5-carbonyl)-pyridin-3-yl]-2-(4-chloro-phenyl)-acetamide], 8.53; as for `CC(C)(C)n1cc(C(=O)c2cncc(NC(=O)Cc3ccc(F)cc3)c2)c2cncnc21` [Example 546, N-[5-(7-tert-Butyl-7H-pyrrolo[2,3-d]pyrimidine-5-carbonyl)-pyridin-3-yl]-2-(4-fluoro-phenyl)-acetamide], 8.27. `COCC(C)(C)n1cc(C(=O)c2cncc(NC(=O)Cc3ccc(Cl)cn3)c2)c2cnc(N)nc21` [Example 547, N-{5-[2-Amino-7-(2-methoxy-1,1-dimethyl-ethyl)-7H-pyrrolo[2,3-d]pyrimidine-5-carbonyl]-pyridin-3-yl}-2-(5-chloro-pyridin-2-yl)-acetamide]: the negative logarithm of the IC50 (pIC50) is 8.41. For `COCC(C)(C)n1cc(C(=O)c2cncc(NC(=O)Cc3ccc(F)cn3)c2)c2cnc(N)nc21` [Example 548, N-{5-[2-Amino-7-(2-methoxy-1,1-dimethyl-ethyl)-7H-pyrrolo[2,3-d]pyrimidine-5-carbonyl]-pyridin-3-yl}-2-(5-fluoro-pyridin-2-yl)-acetamide], the pIC50 is 7.67. As for `COCC(C)(C)n1cc(C(=O)c2cncc(NC(=O)Cn3ccc(C(F)(F)F)n3)c2)c2cnc(N)nc21` [Example 549, N-{5-[2-Amino-7-(2-methoxy-1,1-dimethyl-ethyl)-7H-pyrrolo[2,3-d]pyrimidine-5-carbonyl]-pyridin-3-yl}-2-(3-trifluoromethyl-pyrazol-1-yl)-acetamide], the figure is 8.49; as for `COCC(C)(C)n1cc(C(=O)c2cncc(NC(=O)Cn3cc(C(F)(F)F)nn3)c2)c2cnc(N)nc21` [Example 550, N-{5-[2-Amino-7-(2-methoxy-1,1-dimethyl-ethyl)-7H-pyrrolo[2,3-d]pyrimidine-5-carbonyl]-pyridin-3-yl}-2-(4-trifluoromethyl-[1,2,3]triazol-1-yl)-acetamide], 7.79. As for `COCC(C)(C)n1cc(C(=O)c2cncc(NC(=O)Cn3cc(C(F)(F)F)cn3)c2)c2cnc(N)nc21` [Example 551, N-{5-[2-Amino-7-(2-methoxy-1,1-dimethyl-ethyl)-7H-pyrrolo[2,3-d]pyrimidine-5-carbonyl]-pyridin-3-yl}-2-(4-trifluoromethyl-pyrazol-1-yl)-acetamide], the figure is 8.56; as for `COCC(C)(C)n1cc(C(=O)c2cncc(NC(=O)Cn3cc(C4CC4)nn3)c2)c2cnc(N)nc21` [Example 552, N-{5-[2-Amino-7-(2-methoxy-1,1-dimethyl-ethyl)-7H-pyrrolo[2,3-d]pyrimidine-5-carbonyl]-pyridin-3-yl}-2-(4-cyclopropyl-[1,2,3]triazol-1-yl)-acetamide], 8.12. Consider `CC(C)(CO)n1cc(C(=O)c2cncc(NC(=O)Cn3cc4ccccc4n3)c2)c2cnc(N)nc21` [Example 553, N-{5-[2-Amino-7-(2-hydroxy-1,1-dimethyl-ethyl)-7H-pyrrolo[2,3-d]pyrimidine-5-carbonyl]-pyridin-3-yl}-2-indazol-2-yl-acetamide], for which the negative-log IC50 (pIC50) is 8.36.

Take `CC(C)(CO)n1cc(C(=O)c2cncc(NC(=O)Cn3cnc4ccccc4c3=O)c2)c2cnc(N)nc21` [Example 554, N-{5-[2-Amino-7-(2-hydroxy-1,1-dimethyl-ethyl)-7H-pyrrolo[2,3-d]pyrimidine-5-carbonyl]-pyridin-3-yl}-2-(4-oxo-4H-quinazolin-3-yl)-acetamide]: the pIC50 is 6.57. Take `CC(C)(CO)n1cc(C(=O)c2cncc(NC(=O)Cc3ncc(F)cc3F)c2)c2cnc(N)nc21` [Example 555, N-{5-[2-Amino-7-(2-hydroxy-1,1-dimethyl-ethyl)-7H-pyrrolo[2,3-d]pyrimidine-5-carbonyl]-pyridin-3-yl}-2-(3,5-difluoro-pyridin-2-yl)-acetamide]: the pIC50 was 6.82. As for `Cc1ccc(CC(=O)Nc2cncc(C(=O)c3cn(C(C)(C)CO)c4nc(N)ncc34)c2)nc1` [Example 556, N-{5-[2-Amino-7-(2-hydroxy-1,1-dimethyl-ethyl)-7H-pyrrolo[2,3-d]pyrimidine-5-carbonyl]-pyridin-3-yl}-2-(5-methyl-pyridin-2-yl)-acetamide], the figure is 8.50; as for `CN(c1ccc(CC(=O)Nc2cncc(C(=O)c3cn(C(C)(C)CO)c4nc(N)ncc34)c2)cc1)S(C)(=O)=O` [Example 557, N-(5-{[2-amino-7-(2-hydroxy-1,1-dimethylethyl)-7H-pyrrolo[2,3-d]pyrimidin-5-yl]carbonyl}pyridin-3-yl)-2-{4-[methyl(methylsulfonyl)amino]phenyl}-acetamide], 8.02; as for `CC(C)(CO)n1cc(C(=O)c2cncc(NC(=O)Cc3nc4ccccc4[nH]3)c2)c2cnc(N)nc21` [Example 558, N-{5-[2-Amino-7-(2-hydroxy-1,1-dimethyl-ethyl)-7H-pyrrolo[2,3-d]pyrimidine-5-carbonyl]-pyridin-3-yl}-2-(1H-benzoimidazol-2-yl)-acetamide], 8.25.

Consider `CC(C)(CO)n1cc(C(=O)c2cncc(NC(=O)Cn3cc(C(F)(F)F)ccc3=O)c2)c2cnc(N)nc21` [Example 559, N-{5-[2-Amino-7-(2-hydroxy-1,1-dimethyl-ethyl)-7H-pyrrolo[2,3-d]pyrimidine-5-carbonyl]-pyridin-3-yl}-2-(2-oxo-5-trifluoromethyl-2H-pyridin-1-yl)-acetamide], for which the negative-log IC50 (pIC50) was 6.43.
